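GI50 is the concentration that inhibits growth by half. TGI: total growth inhibition.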
Experiments:
Assay in all cases: DTP human tumour cell line panel, 384-well format
786-0 renal = test system: 786-0 renal
A549 NSCLC = test system: A549 NSCLC
BT-549 breast = test system: BT-549 breast
CAKI-1 renal = test system: CAKI-1 renal
CCRF-CEM leukemia = test system: CCRF-CEM leukemia
COLO 205 colon = test system: COLO 205 colon
DU-145 prostate = test system: DU-145 prostate
EKVX NSCLC = test system: EKVX NSCLC
HCT-116 colon = test system: HCT-116 colon
HL-60(TB) leukemia = test system: HL-60(TB) leukemia
HOP-62 NSCLC = test system: HOP-62 NSCLC
HOP-92 NSCLC = test system: HOP-92 NSCLC
HS 578T breast = test system: HS 578T breast
HT29 colon = test system: HT29 colon
K-562 leukemia = test system: K-562 leukemia
KM12 colon = test system: KM12 colon
LOX IMVI melanoma = test system: LOX IMVI melanoma
M14 melanoma = test system: M14 melanoma
MALME-3M melanoma = test system: MALME-3M melanoma
MCF7 breast = test system: MCF7 breast
MDA-MB-231 breast = test system: MDA-MB-231 breast
NCI-H23 lung = test system: NCI-H23 lung
NCI-H322M lung = test system: NCI-H322M lung
NCI-H460 NSCLC = test system: NCI-H460 NSCLC
NCI-H522 lung = test system: NCI-H522 lung
NCI/ADR-RES ovarian = test system: NCI/ADR-RES ovarian
OVCAR-3 ovarian = test system: OVCAR-3 ovarian
OVCAR-4 ovarian = test system: OVCAR-4 ovarian
OVCAR-5 ovarian = test system: OVCAR-5 ovarian
OVCAR-8 ovarian = test system: OVCAR-8 ovarian
PC-3 prostate = test system: PC-3 prostate
RPMI-8226 leukemia = test system: RPMI-8226 leukemia
RXF 393 renal = test system: RXF 393 renal
SF-268 CNS = test system: SF-268 CNS
SF-539 CNS = test system: SF-539 CNS
SK-MEL-2 melanoma = test system: SK-MEL-2 melanoma
SK-MEL-28 melanoma = test system: SK-MEL-28 melanoma
SK-MEL-5 melanoma = test system: SK-MEL-5 melanoma
SK-OV-3 ovarian = test system: SK-OV-3 ovarian
SN12C renal = test system: SN12C renal
SNB-19 CNS = test system: SNB-19 CNS
SNB-75 CNS = test system: SNB-75 CNS
SR leukemia = test system: SR leukemia
SW-620 colon = test system: SW-620 colon
T-47D breast = test system: T-47D breast
UACC-257 melanoma = test system: UACC-257 melanoma
UACC-62 melanoma = test system: UACC-62 melanoma

Structure (SMILES): Cc1nc2ccc(-n3ncc(C(=O)c4cc5ccccc5[nH]4)c3N)cc2[nH]1
- GI50 ([…]-0 renal): 8.85 µM
- TGI (786-0 renal): 26.7 µM
- GI50 (A549 NSCLC): 9.61 µM
- TGI (A549 NSCLC): 56.8 µM
- GI50 (BT-549 breast): 5.72 µM
- TGI (BT-549 breast): 20.7 µM
- GI50 (CAKI-1 renal): 6.43 µM
- TGI (CAKI-1 renal): 39.8 µM
- GI50 (CCRF-CEM leukemia): 5.85 µM
- TGI (CCRF-CEM leukemia): 18.7 µM
- GI50 (COLO 205 colon): 5.86 µM
- TGI (COLO 205 colon): 30.2 µM
- GI50 (DU-145 prostate): 12.7 µM
- TGI (DU-145 prostate): 41.7 µM
- GI50 (EKVX NSCLC): 15.3 µM
- TGI (EKVX NSCLC): 41.1 µM
- GI50 (HCT-116 colon): 3.78 µM
- TGI (HCT-116 colon): 16.1 µM
- GI50 (HL-60(TB) leukemia): 2.97 µM
- TGI (HL-60(TB) leukemia): 12.3 µM
- GI50 (HOP-62 NSCLC): 12.2 µM
- TGI (HOP-62 NSCLC): 29.6 µM
- GI50 (HOP-92 NSCLC): 10.3 µM
- TGI (HOP-92 NSCLC): 30.3 µM
- GI50 (HS 578T breast): 6.48 µM
- TGI (HS 578T breast): 26 µM
- GI50 (HT29 colon): 5.55 µM
- TGI (HT29 colon): 20.5 µM
- GI50 (K-562 leukemia): 3.95 µM
- TGI (K-562 leukemia): 14.3 µM
- GI50 (KM12 colon): 3.3 µM
- TGI (KM12 colon): 12.3 µM
- GI50 (LOX IMVI melanoma): 3.27 µM
- TGI (LOX IMVI melanoma): 8.34 µM
- GI50 (M14 melanoma): 12.5 µM
- TGI (M14 melanoma): 28.4 µM
- GI50 (MALME-3M melanoma): 13.1 µM
- TGI (MALME-3M melanoma): 33.8 µM
- GI50 (MCF7 breast): 6.62 µM
- TGI (MCF7 breast): 24.8 µM
- GI50 (MDA-MB-231 breast): 4.8 µM
- TGI (MDA-MB-231 breast): 44.9 µM
- GI50 (NCI-H23 lung): 17.5 µM
- TGI (NCI-H23 lung): 36.4 µM
- GI50 (NCI-H322M lung): 16.4 µM
- TGI (NCI-H322M lung): 38.9 µM
- GI50 (NCI-H460 NSCLC): 2.37 µM
- TGI (NCI-H460 NSCLC): 9.74 µM
- GI50 (NCI-H522 lung): 5.33 µM
- TGI (NCI-H522 lung): 17.6 µM
- GI50 (NCI/ADR-RES ovarian): 8.76 µM
- TGI (NCI/ADR-RES ovarian): 23.8 µM
- GI50 (OVCAR-3 ovarian): 10.7 µM
- TGI (OVCAR-3 ovarian): 26 µM
- GI50 (OVCAR-4 ovarian): 10.4 µM
- TGI (OVCAR-4 ovarian): 40.2 µM
- GI50 (OVCAR-5 ovarian): 8.84 µM
- TGI (OVCAR-5 ovarian): > 82.6 µM
- GI50 (OVCAR-8 ovarian): 6.08 µM
- TGI (OVCAR-8 ovarian): 18.8 µM
- GI50 (PC-3 prostate): 7.51 µM
- TGI (PC-3 prostate): 26.6 µM
- GI50 (RPMI-8226 leukemia): 6.35 µM
- TGI (RPMI-8226 leukemia): 17.3 µM
- GI50 (RXF 393 renal): 2.37 µM
- TGI (RXF 393 renal): 10.5 µM
- GI50 (SF-268 CNS): 10.6 µM
- TGI (SF-268 CNS): 55.9 µM
- GI50 (SF-539 CNS): 2.13 µM
- TGI (SF-539 CNS): 10.5 µM
- GI50 (SK-MEL-2 melanoma): 28.2 µM
- TGI (SK-MEL-2 melanoma): 44 µM
- GI50 (SK-MEL-28 melanoma): 19.5 µM
- TGI (SK-MEL-28 melanoma): 58.3 µM
- GI50 (SK-MEL-5 melanoma): 4.2 µM
- TGI (SK-MEL-5 melanoma): 17.4 µM
- GI50 (SK-OV-3 ovarian): 11.3 µM
- TGI (SK-OV-3 ovarian): 30.6 µM
- GI50 (SN12C renal): 6.46 µM
- TGI (SN12C renal): 45.9 µM
- GI50 (SNB-19 CNS): 16 µM
- TGI (SNB-19 CNS): > 66.7 µM
- GI50 (SNB-75 CNS): 2.34 µM
- TGI (SNB-75 CNS): 19.8 µM
- GI50 (SR leukemia): 0.668 µM
- TGI (SR leukemia): 1.58 µM
- GI50 (SW-620 colon): 10.4 µM
- TGI (SW-620 colon): 51.2 µM
- GI50 (T-47D breast): 6.8 µM
- TGI (T-47D breast): 19.3 µM
- GI50 (UACC-257 melanoma): 15.1 µM
- TGI (UACC-257 melanoma): 32.6 µM
- GI50 (UACC-62 melanoma): 5.92 µM
- TGI (UACC-62 melanoma): 18.6 µM
